# Results reported in ChEMBL document CHEMBL1201862, “PubChem BioAssay data set” (2004).
# Calls of active or inactive are those of the source.
# How the values were obtained:
# [1] = inhibitors of firefly luciferase expression or activity, dose response, H4 neuroglioma cells, luminescence (AID 1990); type: functional, cell-based
# [2] = Luminescence Cell-Based Dose Response HTS to Identify Inhibitors of 5'UTR Stem-Loop Driven Prion Protein mRNA Translation in H4 Neuroglioblastoma Cells. [Related pubchem assays: 1827 (Project Summary), 1813 (Primary HTS)]; type: functional
# [3] = inhibitors of SNCA 5'UTR-driven reporter translation, confirmation, H4 neuroglioma cells, luminescence (AID 1988); type: functional, cell-based
# [4] = biological target: Glucose-6-phosphate 1-dehydrogenase (Homo sapiens, UniProt P11413); test: human G6PD enzyme inhibitors, dose response, selectivity assay for P. falciparum G6PD inhibitor project, biochemical, fluorescence (AID 504792); type: functional
# Chain of Glucose-6-phosphate 1-dehydrogenase (P11413 whole entry): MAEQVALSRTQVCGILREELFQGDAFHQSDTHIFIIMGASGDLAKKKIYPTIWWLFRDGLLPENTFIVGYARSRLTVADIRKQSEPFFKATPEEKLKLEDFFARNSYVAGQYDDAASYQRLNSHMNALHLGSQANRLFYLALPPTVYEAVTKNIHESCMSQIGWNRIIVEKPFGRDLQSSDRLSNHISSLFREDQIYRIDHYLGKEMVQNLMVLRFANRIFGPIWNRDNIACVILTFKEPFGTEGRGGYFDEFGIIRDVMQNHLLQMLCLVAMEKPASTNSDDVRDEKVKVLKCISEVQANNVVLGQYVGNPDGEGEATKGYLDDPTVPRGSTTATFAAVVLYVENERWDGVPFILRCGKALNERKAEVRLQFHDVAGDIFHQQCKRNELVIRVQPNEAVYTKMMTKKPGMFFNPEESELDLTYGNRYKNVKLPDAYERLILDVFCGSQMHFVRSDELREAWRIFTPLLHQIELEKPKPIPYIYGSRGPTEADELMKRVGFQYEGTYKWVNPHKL
# [5] = biological target: T1, Histone-lysine N-methyltransferase NSD2 (Homo sapiens, UniProt O96028); type: biochemical
# T1 sequence (O96028 whole entry): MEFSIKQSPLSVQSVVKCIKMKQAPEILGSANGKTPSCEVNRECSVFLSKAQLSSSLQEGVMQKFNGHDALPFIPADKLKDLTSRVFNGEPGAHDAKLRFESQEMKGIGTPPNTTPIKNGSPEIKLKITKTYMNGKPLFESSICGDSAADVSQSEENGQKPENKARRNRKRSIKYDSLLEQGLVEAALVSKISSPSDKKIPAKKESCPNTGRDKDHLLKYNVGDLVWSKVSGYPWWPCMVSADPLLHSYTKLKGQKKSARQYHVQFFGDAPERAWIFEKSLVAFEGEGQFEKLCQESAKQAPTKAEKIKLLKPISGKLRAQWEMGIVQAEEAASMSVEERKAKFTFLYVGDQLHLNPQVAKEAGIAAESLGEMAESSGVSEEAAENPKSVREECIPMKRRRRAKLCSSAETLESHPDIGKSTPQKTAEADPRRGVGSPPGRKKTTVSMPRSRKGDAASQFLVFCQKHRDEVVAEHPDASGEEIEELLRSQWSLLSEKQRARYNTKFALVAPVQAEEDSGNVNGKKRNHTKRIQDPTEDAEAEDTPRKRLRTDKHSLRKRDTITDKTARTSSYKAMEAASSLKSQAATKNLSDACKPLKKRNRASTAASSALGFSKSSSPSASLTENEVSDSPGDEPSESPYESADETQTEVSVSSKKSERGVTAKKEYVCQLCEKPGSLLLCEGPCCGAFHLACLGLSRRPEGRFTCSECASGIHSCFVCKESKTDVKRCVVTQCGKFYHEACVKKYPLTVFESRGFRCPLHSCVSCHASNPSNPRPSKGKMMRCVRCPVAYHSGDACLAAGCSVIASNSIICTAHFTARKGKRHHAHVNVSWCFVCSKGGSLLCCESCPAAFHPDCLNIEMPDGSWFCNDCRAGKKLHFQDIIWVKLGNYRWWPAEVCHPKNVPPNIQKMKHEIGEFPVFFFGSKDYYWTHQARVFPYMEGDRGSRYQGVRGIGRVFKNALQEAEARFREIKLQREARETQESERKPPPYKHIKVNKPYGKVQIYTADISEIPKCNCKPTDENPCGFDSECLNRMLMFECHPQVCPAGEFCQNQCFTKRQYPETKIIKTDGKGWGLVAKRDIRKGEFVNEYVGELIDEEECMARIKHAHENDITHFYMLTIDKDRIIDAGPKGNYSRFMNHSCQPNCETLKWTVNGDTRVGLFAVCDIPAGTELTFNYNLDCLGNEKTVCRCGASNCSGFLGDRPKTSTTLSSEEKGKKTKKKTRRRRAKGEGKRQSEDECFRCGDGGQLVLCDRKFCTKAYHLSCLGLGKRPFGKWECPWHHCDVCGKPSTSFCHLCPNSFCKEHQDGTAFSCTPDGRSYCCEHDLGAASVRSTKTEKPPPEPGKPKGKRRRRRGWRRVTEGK
# [6] = biological target: Cytochrome P450 2C9 (Homo sapiens, UniProt P11712)
# Chain of Cytochrome P450 2C9 (P11712 whole entry): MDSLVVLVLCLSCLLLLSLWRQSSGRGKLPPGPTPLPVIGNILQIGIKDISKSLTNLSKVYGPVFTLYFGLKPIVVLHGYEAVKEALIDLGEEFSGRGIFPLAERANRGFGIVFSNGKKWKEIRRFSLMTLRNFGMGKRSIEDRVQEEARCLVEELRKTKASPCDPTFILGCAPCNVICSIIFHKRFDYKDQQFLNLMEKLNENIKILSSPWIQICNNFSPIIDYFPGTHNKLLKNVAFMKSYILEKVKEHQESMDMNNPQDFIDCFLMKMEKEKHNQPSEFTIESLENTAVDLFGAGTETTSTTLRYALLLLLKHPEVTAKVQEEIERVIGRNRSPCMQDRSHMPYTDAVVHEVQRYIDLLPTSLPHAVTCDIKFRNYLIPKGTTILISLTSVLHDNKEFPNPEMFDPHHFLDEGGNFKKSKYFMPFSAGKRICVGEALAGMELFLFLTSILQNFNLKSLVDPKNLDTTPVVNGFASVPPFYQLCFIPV
# [7] = biological target: Genome polyprotein (dengue virus type 2, UniProt P29990); test: Dengue-2 NS5 methyltransferase inhibitors, primary screen, biochemical, confirmation dose response (AID 588689); type: functional
# Chain of Genome polyprotein (P29990 2492-3391 limits assumed): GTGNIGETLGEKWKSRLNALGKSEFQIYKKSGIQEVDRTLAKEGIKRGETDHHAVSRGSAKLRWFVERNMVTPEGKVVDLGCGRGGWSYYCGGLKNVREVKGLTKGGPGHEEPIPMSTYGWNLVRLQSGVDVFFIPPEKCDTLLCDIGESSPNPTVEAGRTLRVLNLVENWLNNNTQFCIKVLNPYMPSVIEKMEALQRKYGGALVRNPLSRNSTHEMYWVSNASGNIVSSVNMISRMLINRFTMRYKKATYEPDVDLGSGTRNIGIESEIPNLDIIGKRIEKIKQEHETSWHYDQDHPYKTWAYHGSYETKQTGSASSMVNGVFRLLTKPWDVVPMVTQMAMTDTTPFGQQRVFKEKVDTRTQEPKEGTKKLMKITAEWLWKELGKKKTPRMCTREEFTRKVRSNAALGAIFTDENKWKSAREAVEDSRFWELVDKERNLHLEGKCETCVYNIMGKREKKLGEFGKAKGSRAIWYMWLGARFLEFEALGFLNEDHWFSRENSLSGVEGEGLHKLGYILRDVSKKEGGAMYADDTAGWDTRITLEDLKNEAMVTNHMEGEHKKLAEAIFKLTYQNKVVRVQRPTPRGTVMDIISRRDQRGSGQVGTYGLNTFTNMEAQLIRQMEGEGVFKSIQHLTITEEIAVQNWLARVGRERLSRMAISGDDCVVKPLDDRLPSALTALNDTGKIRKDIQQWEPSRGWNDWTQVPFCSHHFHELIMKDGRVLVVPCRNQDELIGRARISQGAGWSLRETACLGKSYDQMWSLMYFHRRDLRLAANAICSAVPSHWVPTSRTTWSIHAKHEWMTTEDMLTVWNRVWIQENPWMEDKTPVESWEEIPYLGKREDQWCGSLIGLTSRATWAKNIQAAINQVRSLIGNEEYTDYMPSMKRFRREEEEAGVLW
# [8] = test system: BJ; test: cytotoxicity toward BJ-TERT fibroblasts, dose response, cell-based, RAS-independent, luminescence (AID 1933); type: functional, Homo sapiens; details: Homo sapiens, BJ
# [9] = test system: BJ; test: cells; type: functional, cell-based, Homo sapiens; details: Homo sapiens, BJ
# [10] = inhibitors of intracellular T. cruzi replication, confirmation, NIH3T3 host cells, beta-gal luminescence (AID 2044); type: functional, cell-based;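 further: intracellular parasites grown in NIH/3T3 mouse fibroblasts as host cells; luminescent beta-galactosidase reporter signal from transgenic T. cruzi replicating inside host cells; inhibitors lower the luminescence signal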
# [11] = cytotoxicity toward NIH3T3 fibroblasts, dose response, counter-screen, cell-based, ATP luminescence, mouse fibroblasts (AID 2010); type: functional;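 further: cells exposed to compound for about 90 hours before reading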
# [12] = test system: BJ; test: cytotoxicity toward BJ-TERT-LT-ST fibroblasts, dose response, cell-based, RAS-independent, luminescence (AID 1935); type: functional, Homo sapiens; details: Homo sapiens, BJ;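 further: BJ fibroblasts immortalized with TERT plus LT and ST oncogenes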
# [13] = cytotoxicity toward DRD oncogenic fibroblasts, dose response, cell-based, non-viral oncogenic, luminescence (AID 1934); type: functional; details: Homo sapiens
# [14] = biological target: T2, Heat shock factor protein 1 (Mus musculus, UniProt P38532); test: HSF1 potentiators in luciferase reporter cells, confirmation, cell-based, NIH3T3, luminescence, dose retest (AID 435004); type: functional;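 further: stress induced by proteasome inhibitor MG132 added 30 min after compound; luciferase reporter driven by HSF1 response element in NIH3T3 cells; actives raise luminescence as potentiators of the MG132 stress response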
# T2 sequence (P38532 whole entry): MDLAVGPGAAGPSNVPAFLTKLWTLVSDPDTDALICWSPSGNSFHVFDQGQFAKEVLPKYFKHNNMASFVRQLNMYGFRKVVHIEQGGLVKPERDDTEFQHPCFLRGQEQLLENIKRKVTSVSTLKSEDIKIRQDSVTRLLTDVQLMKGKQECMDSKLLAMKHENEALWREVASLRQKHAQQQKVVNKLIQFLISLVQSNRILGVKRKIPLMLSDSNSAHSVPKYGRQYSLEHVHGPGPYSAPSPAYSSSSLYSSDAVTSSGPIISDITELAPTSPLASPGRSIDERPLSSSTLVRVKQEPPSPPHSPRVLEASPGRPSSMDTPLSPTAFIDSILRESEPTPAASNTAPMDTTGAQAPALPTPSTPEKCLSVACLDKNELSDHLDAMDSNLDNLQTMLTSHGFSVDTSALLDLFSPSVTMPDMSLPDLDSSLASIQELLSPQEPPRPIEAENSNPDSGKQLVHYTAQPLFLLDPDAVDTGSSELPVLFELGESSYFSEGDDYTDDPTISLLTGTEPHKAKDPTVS
# [15] = biological target: T3, Replicative DNA helicase DnaB (Mycobacterium tuberculosis, UniProt P9WMR3); test: DnaB intein splicing inhibitors, dose response, biochemical, cell-free fluorescence (AID 449749); type: functional
# T3 sequence (P9WMR3 whole entry): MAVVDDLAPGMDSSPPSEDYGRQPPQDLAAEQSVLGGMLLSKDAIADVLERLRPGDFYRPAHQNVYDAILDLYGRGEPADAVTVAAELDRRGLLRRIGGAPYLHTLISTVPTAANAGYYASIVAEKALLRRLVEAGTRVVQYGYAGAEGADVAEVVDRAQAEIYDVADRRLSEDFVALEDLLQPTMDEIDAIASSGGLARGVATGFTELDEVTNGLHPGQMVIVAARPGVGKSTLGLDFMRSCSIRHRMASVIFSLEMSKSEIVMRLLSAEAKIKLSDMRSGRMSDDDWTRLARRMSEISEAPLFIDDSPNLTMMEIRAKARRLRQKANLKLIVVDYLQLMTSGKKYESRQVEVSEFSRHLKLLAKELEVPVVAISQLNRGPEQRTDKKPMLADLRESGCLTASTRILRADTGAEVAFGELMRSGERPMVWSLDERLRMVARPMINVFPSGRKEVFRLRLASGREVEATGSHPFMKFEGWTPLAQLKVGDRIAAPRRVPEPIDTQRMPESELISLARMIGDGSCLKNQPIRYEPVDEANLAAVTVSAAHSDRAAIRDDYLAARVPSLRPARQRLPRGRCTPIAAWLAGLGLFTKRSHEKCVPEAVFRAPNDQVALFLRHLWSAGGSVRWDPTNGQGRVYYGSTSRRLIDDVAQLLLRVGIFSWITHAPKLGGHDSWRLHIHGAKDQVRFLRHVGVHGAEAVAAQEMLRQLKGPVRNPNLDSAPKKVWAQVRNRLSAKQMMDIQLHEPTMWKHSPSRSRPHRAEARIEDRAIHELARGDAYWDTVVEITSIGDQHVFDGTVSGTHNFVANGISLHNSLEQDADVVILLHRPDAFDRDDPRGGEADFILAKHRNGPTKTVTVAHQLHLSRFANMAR
# [16] = biological target: T4, Protein RecA (Mycobacterium tuberculosis, UniProt P9WHJ3); test: Fluorescence Cell-Free Homogeneous Dose Retest to Identify Inhibitors of RecA-Intein Splicing Activity. [Related pubchem assays (depositor defined):AID2097, AID2223, AID489010, AID492950]; type: functional
# T4 sequence (P9WHJ3 whole entry): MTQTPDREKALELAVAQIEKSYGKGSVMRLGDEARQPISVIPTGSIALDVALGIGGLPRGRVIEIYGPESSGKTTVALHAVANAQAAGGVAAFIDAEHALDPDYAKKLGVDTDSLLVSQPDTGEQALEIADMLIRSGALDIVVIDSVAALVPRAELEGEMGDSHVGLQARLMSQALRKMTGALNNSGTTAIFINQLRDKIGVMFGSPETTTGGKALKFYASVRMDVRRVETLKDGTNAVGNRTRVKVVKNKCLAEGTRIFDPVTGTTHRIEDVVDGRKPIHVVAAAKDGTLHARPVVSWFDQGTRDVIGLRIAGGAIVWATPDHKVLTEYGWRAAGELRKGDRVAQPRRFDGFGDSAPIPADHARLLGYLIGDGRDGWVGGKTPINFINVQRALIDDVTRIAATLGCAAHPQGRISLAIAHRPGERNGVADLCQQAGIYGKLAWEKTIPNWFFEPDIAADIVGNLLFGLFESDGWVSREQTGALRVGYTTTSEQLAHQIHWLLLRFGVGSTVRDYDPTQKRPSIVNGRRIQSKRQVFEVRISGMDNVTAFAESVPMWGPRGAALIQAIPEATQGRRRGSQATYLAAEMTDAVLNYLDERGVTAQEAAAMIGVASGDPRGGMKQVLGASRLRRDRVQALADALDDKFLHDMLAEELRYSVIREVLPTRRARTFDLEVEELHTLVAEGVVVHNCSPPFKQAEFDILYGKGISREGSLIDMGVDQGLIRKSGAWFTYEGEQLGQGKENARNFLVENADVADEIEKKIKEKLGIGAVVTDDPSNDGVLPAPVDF
# [17] = biological target: Induced myeloid leukemia cell differentiation protein Mcl-1 (Homo sapiens, UniProt Q07820); type: functional
# Chain of Induced myeloid leukemia cell differentiation protein Mcl-1 (Q07820 whole entry): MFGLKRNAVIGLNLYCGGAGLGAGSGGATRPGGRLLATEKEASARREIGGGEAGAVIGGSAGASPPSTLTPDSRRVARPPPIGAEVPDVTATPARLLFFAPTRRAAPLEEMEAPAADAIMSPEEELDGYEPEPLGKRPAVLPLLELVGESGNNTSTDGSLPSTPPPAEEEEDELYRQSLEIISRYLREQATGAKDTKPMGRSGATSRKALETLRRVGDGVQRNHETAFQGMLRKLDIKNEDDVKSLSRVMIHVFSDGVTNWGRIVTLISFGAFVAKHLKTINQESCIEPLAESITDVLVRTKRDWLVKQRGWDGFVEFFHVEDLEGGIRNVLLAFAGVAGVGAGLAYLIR
# [18] = biological target: Cytochrome P450 2D6 (Homo sapiens, UniProt P10635);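 further: CYP2D6 member of a cytochrome P450 panel assay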
# Chain of Cytochrome P450 2D6 (P10635 whole entry): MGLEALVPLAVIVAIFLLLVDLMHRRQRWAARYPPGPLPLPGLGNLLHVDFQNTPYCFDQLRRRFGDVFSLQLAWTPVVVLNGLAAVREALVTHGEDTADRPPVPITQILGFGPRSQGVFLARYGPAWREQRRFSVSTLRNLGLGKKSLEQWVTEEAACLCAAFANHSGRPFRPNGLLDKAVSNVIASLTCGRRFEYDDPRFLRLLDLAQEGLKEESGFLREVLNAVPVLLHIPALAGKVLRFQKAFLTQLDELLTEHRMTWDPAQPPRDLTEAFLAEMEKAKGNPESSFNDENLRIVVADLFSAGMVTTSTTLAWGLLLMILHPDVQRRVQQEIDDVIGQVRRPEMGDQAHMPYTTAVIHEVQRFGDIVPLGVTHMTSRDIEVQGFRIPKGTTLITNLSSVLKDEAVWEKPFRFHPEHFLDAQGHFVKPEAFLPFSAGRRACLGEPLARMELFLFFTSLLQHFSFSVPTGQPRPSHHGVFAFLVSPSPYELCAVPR
# [19] = biological target: T5, Cytochrome P450 1A2 (Homo sapiens, UniProt P05177);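 further: PubChem cytochrome P450 panel assay, CYP1A2 panel member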
# T5 sequence (P05177 whole entry): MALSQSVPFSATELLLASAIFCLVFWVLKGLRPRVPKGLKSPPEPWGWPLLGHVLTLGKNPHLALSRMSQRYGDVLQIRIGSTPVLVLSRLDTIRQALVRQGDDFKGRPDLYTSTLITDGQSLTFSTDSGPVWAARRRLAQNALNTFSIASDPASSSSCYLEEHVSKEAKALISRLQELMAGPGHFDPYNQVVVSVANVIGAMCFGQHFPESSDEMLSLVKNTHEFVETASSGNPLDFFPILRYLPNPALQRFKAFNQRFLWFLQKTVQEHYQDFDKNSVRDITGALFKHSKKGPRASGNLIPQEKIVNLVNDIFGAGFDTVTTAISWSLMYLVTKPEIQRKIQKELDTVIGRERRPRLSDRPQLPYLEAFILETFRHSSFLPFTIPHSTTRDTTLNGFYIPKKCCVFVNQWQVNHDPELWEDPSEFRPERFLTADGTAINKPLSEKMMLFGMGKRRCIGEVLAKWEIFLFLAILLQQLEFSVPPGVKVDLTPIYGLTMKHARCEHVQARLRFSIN
# [20] = biological target: T6, Carboxy-terminal domain RNA polymerase II polypeptide A small phosphatase 1 (Homo sapiens, UniProt Q9GZU7); test: inhibitors of CTDSP1, concentration-response testing, biochemical assay, absorbance-based, actives from ultra-high-throughput screening (AID 540297); type: functional
# T6 sequence (Q9GZU7 whole entry): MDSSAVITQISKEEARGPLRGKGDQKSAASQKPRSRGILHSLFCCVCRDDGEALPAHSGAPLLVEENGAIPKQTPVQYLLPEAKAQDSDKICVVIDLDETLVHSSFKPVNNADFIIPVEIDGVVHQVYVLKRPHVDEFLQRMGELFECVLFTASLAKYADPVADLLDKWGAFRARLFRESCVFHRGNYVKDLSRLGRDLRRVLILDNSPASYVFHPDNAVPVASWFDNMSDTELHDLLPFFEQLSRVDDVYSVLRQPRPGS
# [21] = biological target: DNA (cytosine-5)-methyltransferase 1 (Homo sapiens, UniProt P26358); test: DNMT1 methyltransferase inhibitors, confirmation, biochemical, fluorescent molecular beacon (AID 602386); type: functional
# Chain of DNA (cytosine-5)-methyltransferase 1 (P26358 whole entry): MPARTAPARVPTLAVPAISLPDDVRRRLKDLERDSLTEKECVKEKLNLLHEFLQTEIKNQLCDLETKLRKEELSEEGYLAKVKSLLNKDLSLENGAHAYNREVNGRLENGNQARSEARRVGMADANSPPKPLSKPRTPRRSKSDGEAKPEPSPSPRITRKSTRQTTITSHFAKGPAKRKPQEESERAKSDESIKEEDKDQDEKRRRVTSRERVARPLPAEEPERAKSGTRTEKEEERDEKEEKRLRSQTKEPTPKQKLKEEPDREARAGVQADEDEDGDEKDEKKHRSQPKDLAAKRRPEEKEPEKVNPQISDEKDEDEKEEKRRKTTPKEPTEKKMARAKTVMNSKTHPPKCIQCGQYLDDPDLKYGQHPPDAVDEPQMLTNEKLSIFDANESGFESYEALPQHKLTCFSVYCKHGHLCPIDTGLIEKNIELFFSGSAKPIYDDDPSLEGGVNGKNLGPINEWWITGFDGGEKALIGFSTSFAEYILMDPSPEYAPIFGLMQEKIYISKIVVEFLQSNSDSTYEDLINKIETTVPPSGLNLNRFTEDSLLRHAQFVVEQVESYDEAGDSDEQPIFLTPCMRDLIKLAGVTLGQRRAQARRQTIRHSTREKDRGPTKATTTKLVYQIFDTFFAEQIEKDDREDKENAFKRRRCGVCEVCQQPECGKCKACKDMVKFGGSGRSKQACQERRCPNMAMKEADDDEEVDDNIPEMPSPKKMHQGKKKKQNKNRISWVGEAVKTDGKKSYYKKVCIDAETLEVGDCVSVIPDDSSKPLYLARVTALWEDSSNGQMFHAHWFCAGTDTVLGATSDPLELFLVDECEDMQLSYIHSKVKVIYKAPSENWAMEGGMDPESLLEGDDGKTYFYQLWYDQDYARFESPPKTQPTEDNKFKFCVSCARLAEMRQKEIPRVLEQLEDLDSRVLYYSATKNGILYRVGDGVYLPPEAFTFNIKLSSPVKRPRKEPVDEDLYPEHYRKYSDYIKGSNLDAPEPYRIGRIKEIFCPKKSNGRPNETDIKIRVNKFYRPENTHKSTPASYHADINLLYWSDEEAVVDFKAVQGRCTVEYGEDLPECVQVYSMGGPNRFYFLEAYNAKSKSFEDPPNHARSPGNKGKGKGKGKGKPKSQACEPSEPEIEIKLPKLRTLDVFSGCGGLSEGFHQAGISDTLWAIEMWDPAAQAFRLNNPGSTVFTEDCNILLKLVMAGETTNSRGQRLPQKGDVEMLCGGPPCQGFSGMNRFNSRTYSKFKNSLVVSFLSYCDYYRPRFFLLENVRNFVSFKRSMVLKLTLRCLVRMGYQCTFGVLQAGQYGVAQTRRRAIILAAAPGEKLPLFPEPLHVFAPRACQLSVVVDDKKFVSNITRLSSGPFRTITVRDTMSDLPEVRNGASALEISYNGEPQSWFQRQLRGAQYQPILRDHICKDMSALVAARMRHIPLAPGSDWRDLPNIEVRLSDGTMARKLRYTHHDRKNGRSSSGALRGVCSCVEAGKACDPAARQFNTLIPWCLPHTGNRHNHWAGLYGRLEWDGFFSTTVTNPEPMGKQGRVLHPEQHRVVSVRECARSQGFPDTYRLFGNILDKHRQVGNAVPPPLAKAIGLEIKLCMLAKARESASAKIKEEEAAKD
smiles,measurement,setting,value
CN(C)c1cccc2c1c(NC(=O)c1ccc(Cl)cc1)nn2C,EC50,[1],> 120 µM (not active)
same,EC50,[2],> 120 µM (not active)
same,EC50,[3],24.2 µM (active)
same,IC50,[4],> 80 µM (inactive)
O=[N+]([O-])c1ccc(N2CCCC2)cc1N1CCCC1,AC50,[5],> 20 µM (inactive)
same,AC50,[6],inconclusive
O=C(O)CN1C(=O)/C(=C\c2cccc(OCc3ccccc3F)c2)SC1=S,IC50,[7],38.2 µM (active)
Cc1ccc2[nH]c(SCC(=O)NC3CCCc4ccccc43)nc2c1 (stereo not given),IC50,[4],> 80 µM (inactive)
O=C(COC(=O)c1ccc2c(c1[N+](=O)[O-])C(=O)c1ccccc1C2=O)NC1CC1,EC50,[8],> 150 µM (not active)
same,EC50,[9],> 150 µM (not active)
same,EC50,[10],4.65 µM (active)
same,EC50,[11],9.54 µM (active)
same,EC50,[12],> 150 µM (not active)
same,EC50,[13],> 150 µM (not active)
same,IC50,[4],> 80 µM (inactive)
same,EC50,[14],17 µM (active)
same,AC50,[15],3.81 µM (active)
same,EC50,[16],0.238 µM (active)
CC1(C)CC(=O)C(=Cc2cn(CCC#N)nc2-c2ccc(F)cc2)C(=O)C1,IC50,[7],52.8 µM (active)
O=C(CCN1C(=O)S/C(=C\c2ccccc2)C1=O)Nc1ccc(S(=O)(=O)Nc2nccs2)cc1,IC50,[17],7.24 µM (active)
same,IC50,[7],> 100 µM (active)
same,AC50,[18],6.31 µM (inconclusive)
same,AC50,[19],31.6 µM (inconclusive)
O=CC(O)C1OC(=O)C(O)C1O (stereo not given),IC50,[20],4.05 µM (active)
same,IC50,[21],14.4 µM (active)
